In patent publication US11857567B2, “Hypertonic pharmaceutical compositions containing an anti-platinum chemoprotectant agent” (Decibel Therapeutics, Inc., priority 2018, dated 2024):

System: cisplatin-induced hearing loss in guinea pigs
Experiment: Hearing protection by locally delivered STS Composition from cisplatin challenge (ABR)
Type: in vivo, guinea pig
Settings: at both 24 kHz and 32 kHz
Source text: Historical ABR data were used to define a baseline. The animals were anesthetized with tiletamine hydrochloride and zolazepam hydrochloride (Zoletil). Acoustic stimuli were delivered via an earphone. Needle electrodes were placed near the ear canal at the causoventral position, the vertex of the skull, and a ground at the lower leg. The stimulus level was from 10 to 90 dB in 5 dB steps, and the tone-pip frequencies were 4, 24, and 32 kHz. The ceiling sound pressure level was 90 dB. ABR threshold was observed by visual inspection of stacked waveforms as the lowest sound pressure level, at which the waveform was above the noise floor.
An aqueous composition of 0.5M sodium thiosulfate/2% (w/v) hyaluronan (STS Composition) or vehicle was dosed intratympanically onto the round window in the left ear (LE) as described above, and the right ear (RE) was left untreated in the guinea pigs (FIG. 5).
Because of heterogeneity of hearing loss after cisplatin challenge, the untreated right ears was used to select the animals with hearing loss. There were 21 animals with right ear threshold >60 dB at 32 kHz. Of these 21 animals, 3 with otitis media were excluded, leaving 18 animals for the final analysis. 10 animals were dosed with vehicle and 8 animals were dosed with STS Composition (FIG. 4B). […]

O=S([O-])([O-])=S.[Na+].[Na+] [sodium thiosulfate]
protection (on average): 80%
